# Test system: INS-1, a rat insulinoma cell
# Assay: glucose-dependent insulin secretion ability test in INS-1 (rat insulin ELISA)
# Type: cell-based
# Experimental: In this regard, in order to confirm the effect of the HKFY derivative, a candidate GPR39 agonist, on insulin secretion ability, a glucose-dependent insulin secretion ability test was performed in INS-1 (Korea Cell Line Bank), a rat insulinoma cell (FIG. 75).
# Specifically, when INS-1 cells were treated with 1 or 10 μM of HKFY-34 in 2.8 mM glucose similar to a physiological blood glucose level or 11.1 mM glucose, a high blood glucose level, the insulin secretion ability was confirmed using a rat insulin ELISA.
# In addition, through GPR39 knock-down experiment using GPR39 siRNA, it was confirmed that HKFY-34 enhances insulin secretion through the GPR39 receptor.
smiles,measurement,setting,value
"CCCCCCCC(=O)NCCCC[C@H](NC(=O)[C@@H](N)Cc1cn(C(c2ccccc2)c2ccccc2)cn1)C(=O)N[C@H](Cc1ccc(C)cc1)C(=O)N[C@@H](Cc1ccc(O)cc1)C(=O)O [HKFY-34, ((R)-2-((S)-2-((S)-2-amino-3-(1-benzhydryl-1H-imidazol-4-yl)propanamido)-6-octanamidohexanamido)-3-(p-tolyl)propanoyl)-L-tyrosine]",insulin secretion,"INS-1, high blood glucose level (11.1 mM glucose), 1 or 10 μM",enhanced at all treatment concentrations
same,change in insulin secretion level,"INS-1, low blood glucose level (2.8 mM glucose), 1 or 10 μM",insignificant
same,insulin secretion ability,"cells treated with GPR39 siRNA compared to scrambled siRNA, 11.1 mM glucose",not increased

# — US20230212222A1 (ANYGEN CO., LTD., priority 2020, published 2023)
